In ChEMBL document CHEMBL1201862, “PubChem BioAssay data set” (2004):
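Tested at 5 concentrations; 48 h exposure; 96-well plates; endpoints linearly interpolated, else capped at highest concentration. GI50: concentration for 50% inhibition of growth.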 The source made the active and inactive calls. No stated cut-off is given here; in the data, active = GI50 up to about 1.1 µM and inactive = higher.

What was measured:
Assay in all cases: inhibition of tumour cell growth, NCI panel, 48 h
[1] = tested on: HCT-116
[2] = tested on: NCI-H226
[3] = tested on: HOP-62
[4] = tested on: UACC-257
[5] = tested on: SK-MEL-5
[6] = tested on: MDA-MB-435
[7] = tested on: RXF 393
[8] = tested on: MDA-N
[9] = tested on: DU-145
[10] = tested on: K562
[11] = tested on: LOX IMVI
[12] = tested on: SR
[13] = tested on: NCI-H23
[14] = tested on: OVCAR-5
[15] = tested on: HCT-15
[16] = tested on: IGROV-1
[17] = tested on: A498
[18] = tested on: U-251
[19] = tested on: SF-268
[20] = tested on: Malme-3M
[21] = tested on: SK-OV-3
[22] = tested on: SF-539
[23] = tested on: OVCAR-3
[24] = tested on: SF-295
[25] = tested on: NCI-H460
[26] = tested on: CAKI-1
[27] = tested on: UACC-62
[28] = tested on: TK-10
[29] = tested on: HOP-92
[30] = tested on: HT-29
[31] = tested on: MCF7
[32] = tested on: PC-3
[33] = tested on: 786-0
[34] = tested on: SNB-19
[35] = tested on: SK-MEL-28
[36] = tested on: BT-549
[37] = tested on: SN12C
[38] = tested on: Hs-578T
[39] = tested on: OVCAR-4
[40] = tested on: T47D
[41] = tested on: SW-620
[42] = tested on: OVCAR-8
[43] = tested on: M14
[44] = tested on: CCRF-CEM
[45] = tested on: NCI-H522
[46] = tested on: RPMI-8226
[47] = tested on: SK-MEL-2
[48] = tested on: MOLT-4
[49] = tested on: COLO 205
[50] = tested on: ACHN
[51] = tested on: EKVX
[52] = tested on: SNB-75
[53] = tested on: A549
[54] = tested on: KM12
[55] = tested on: MDA-MB-231
[56] = tested on: HL-60
[57] = tested on: HCC 2998
[58] = tested on: NCI/ADR-RES
[59] = tested on: UO-31

Q: How did the GI50 [1] turn out when `Cc1nc(SCC(=O)Nc2ccc(Cl)cc2)c2sc(=S)n(-c3ccccc3)c2n1` was run?
A: Its GI50 is > 10 µM (inactive).

Q: What about the GI50 [2] of the same molecule?
A: Its GI50 is > 10 µM (inactive).

Q: And the GI50 [3]?
A: Its GI50 is > 10 µM (inactive).

Q: What about the GI50 [4] of the same molecule?
A: The GI50 was > 10 µM (inactive).

Q: What about the GI50 [5] of the same molecule?
A: The GI50 was > 10 µM (inactive).

Q: What about the GI50 [6] of the same molecule?
A: The GI50 was > 10 µM (inactive).

Q: And the GI50 [7]?
A: The GI50 was > 10 µM (inactive).

Q: And the GI50 [8]?
A: The GI50 was > 10 µM (inactive).

Q: And the GI50 [9]?
A: The GI50 was > 10 µM (inactive).

Q: And the GI50 [10]?
A: Its GI50 is 6.41 µM (inactive).

Q: What about the GI50 [11] of the same molecule?
A: Its GI50 is > 10 µM (inactive).

Q: What about the GI50 [12] of the same molecule?
A: The GI50 was 6.28 µM (inactive).

Q: And the GI50 [13]?
A: The GI50 was > 10 µM (inactive).

Q: What about the GI50 [14] of the same molecule?
A: The GI50 was > 10 µM (inactive).

Q: And the GI50 [15]?
A: Its GI50 is greater than 10 µM.

Q: And the GI50 [16]?
A: The GI50 was > 10 µM (inactive).

Q: What about the GI50 [17] of the same molecule?
A: Its GI50 is > 10 µM (inactive).

Q: And the GI50 [18]?
A: The GI50 was > 10 µM (inactive).

Q: What about the GI50 [19] of the same molecule?
A: The GI50 was > 10 µM (inactive).

Q: What about the GI50 [20] of the same molecule?
A: Its GI50 is > 10 µM (inactive).

Q: And the GI50 [21]?
A: Its GI50 is > 10 µM (inactive).

Q: And the GI50 [22]?
A: Its GI50 is > 10 µM (inactive).

Q: What about the GI50 [23] of the same molecule?
A: Its GI50 is > 10 µM (inactive).

Q: And the GI50 [24]?
A: The GI50 was > 10 µM (inactive).

Q: What about the GI50 [25] of the same molecule?
A: The GI50 was > 10 µM (inactive).

Q: And the GI50 [26]?
A: Its GI50 is > 10 µM (inactive).

Q: What about the GI50 [27] of the same molecule?
A: Its GI50 is > 10 µM (inactive).

Q: What about the GI50 [28] of the same molecule?
A: The GI50 was > 10 µM (inactive).

Q: And the GI50 [29]?
A: The GI50 was 5.15 µM (inactive).

Q: And the GI50 [30]?
A: The GI50 was > 10 µM (inactive).

Q: And the GI50 [31]?
A: The GI50 was > 10 µM (inactive).

Q: What about the GI50 [32] of the same molecule?
A: Its GI50 is > 10 µM (inactive).

Q: What about the GI50 [33] of the same molecule?
A: The GI50 was > 10 µM (inactive).

Q: And the GI50 [34]?
A: Its GI50 is > 10 µM (inactive).

Q: What about the GI50 [35] of the same molecule?
A: Its GI50 is > 10 µM (inactive).

Q: What about the GI50 [36] of the same molecule?
A: Its GI50 is > 10 µM (inactive).

Q: What about the GI50 [37] of the same molecule?
A: The GI50 was > 10 µM (inactive).

Q: And the GI50 [38]?
A: The GI50 was > 10 µM (inactive).

Q: And the GI50 [39]?
A: The GI50 was > 10 µM (inactive).

Q: What about the GI50 [40] of the same molecule?
A: Its GI50 is > 10 µM (inactive).

Q: And the GI50 [41]?
A: The GI50 was > 10 µM (inactive).

Q: And the GI50 [42]?
A: Its GI50 is > 10 µM (inactive).

Q: And the GI50 [43]?
A: Its GI50 is > 10 µM (inactive).

Q: And the GI50 [44]?
A: The GI50 was > 10 µM (inactive).

Q: And the GI50 [45]?
A: The GI50 was > 10 µM (inactive).

Q: And the GI50 [46]?
A: Its GI50 is > 10 µM (inactive).

Q: And the GI50 [47]?
A: Its GI50 is > 10 µM (inactive).

Q: And the GI50 [48]?
A: The GI50 was > 10 µM (inactive).

Q: What about the GI50 [49] of the same molecule?
A: Its GI50 is > 10 µM (inactive).

Q: And the GI50 [50]?
A: The GI50 was > 10 µM (inactive).

Q: And the GI50 [51]?
A: The GI50 was > 10 µM (inactive).

Q: What about the GI50 [52] of the same molecule?
A: The GI50 was > 10 µM (inactive).

Q: And the GI50 [53]?
A: The GI50 was > 10 µM (inactive).

Q: And the GI50 [54]?
A: Its GI50 is > 10 µM (inactive).

Q: And the GI50 [55]?
A: The GI50 was > 10 µM (inactive).

Q: And the GI50 [56]?
A: Its GI50 is > 10 µM (inactive).

Q: And the GI50 [57]?
A: Its GI50 is > 10 µM (inactive).

Q: And the GI50 [58]?
A: The GI50 was > 10 µM (inactive).

Q: For `C[n+]1c2ccccc2n2c3ccccc3c(NCCCN3CCOCC3)c(C#N)c21`, which GI50 [1] is on record?
A: The GI50 was 0.703 µM (active).

Q: What about the GI50 [2] of the same molecule?
A: The GI50 was 1.86 µM (inactive).

Q: What about the GI50 [3] of the same molecule?
A: The GI50 was 1.27 µM (inactive).

Q: And the GI50 [4]?
A: Its GI50 is 2.99 µM (inactive).

Q: What about the GI50 [5] of the same molecule?
A: Its GI50 is 2 µM (inactive).

Q: And the GI50 [6]?
A: The GI50 was 1.78 µM (inactive).

Q: And the GI50 [7]?
A: Its GI50 is 1.37 µM (inactive).

Q: And the GI50 [8]?
A: Its GI50 is 1.04 µM (active).

Q: What about the GI50 [9] of the same molecule?
A: The GI50 was 2.13 µM (inactive).

Q: And the GI50 [10]?
A: The GI50 was 1.73 µM (inactive).

Q: And the GI50 [11]?
A: Its GI50 is 0.839 µM (active).

Q: What about the GI50 [12] of the same molecule?
A: The GI50 was 2.81 µM (inactive).

Q: What about the GI50 [13] of the same molecule?
A: Its GI50 is 1.29 µM (inactive).

Q: And the GI50 [14]?
A: Its GI50 is 1.44 µM (inactive).

Q: And the GI50 [15]?
A: The GI50 was 4.65 µM.

Q: What about the GI50 [59] of the same molecule?
A: The GI50 was 2.95 µM (inactive).

Q: And the GI50 [17]?
A: Its GI50 is 8.87 µM (inactive).

Q: And the GI50 [18]?
A: Its GI50 is 1.52 µM (inactive).

Q: And the GI50 [19]?
A: The GI50 was 1.11 µM (active).

Q: What about the GI50 [20] of the same molecule?
A: The GI50 was 2.05 µM (inactive).

Q: And the GI50 [21]?
A: Its GI50 is 2.5 µM (inactive).

Q: And the GI50 [22]?
A: Its GI50 is 0.556 µM (active).

Q: What about the GI50 [23] of the same molecule?
A: The GI50 was 2.61 µM (inactive).

Q: And the GI50 [24]?
A: The GI50 was 2.8 µM (inactive).

Q: What about the GI50 [25] of the same molecule?
A: The GI50 was 0.684 µM (active).

Q: And the GI50 [26]?
A: Its GI50 is 2.45 µM (inactive).

Q: What about the GI50 [27] of the same molecule?
A: Its GI50 is 3.03 µM (inactive).

Q: What about the GI50 [28] of the same molecule?
A: Its GI50 is 1.58 µM (inactive).

Q: What about the GI50 [29] of the same molecule?
A: Its GI50 is 62.8 µM (inactive).

Q: And the GI50 [30]?
A: Its GI50 is 2.37 µM (inactive).

Q: What about the GI50 [31] of the same molecule?
A: The GI50 was 0.564 µM (active).

Q: What about the GI50 [32] of the same molecule?
A: Its GI50 is 1.31 µM (inactive).

Q: And the GI50 [33]?
A: The GI50 was 1.04 µM (active).

Q: And the GI50 [34]?
A: Its GI50 is 3.08 µM (inactive).

Q: And the GI50 [35]?
A: The GI50 was 3.32 µM (inactive).

Q: And the GI50 [36]?
A: Its GI50 is 12 µM (inactive).

Q: What about the GI50 [37] of the same molecule?
A: The GI50 was 0.597 µM (active).

Q: What about the GI50 [38] of the same molecule?
A: Its GI50 is 1.41 µM (inactive).

Q: And the GI50 [39]?
A: Its GI50 is 1.56 µM (inactive).

Q: What about the GI50 [40] of the same molecule?
A: Its GI50 is 2.32 µM (inactive).

Q: And the GI50 [41]?
A: Its GI50 is 0.849 µM (active).

Q: What about the GI50 [42] of the same molecule?
A: Its GI50 is 0.843 µM (active).

Q: What about the GI50 [43] of the same molecule?
A: The GI50 was 2.4 µM (inactive).

Q: And the GI50 [44]?
A: Its GI50 is 8.17 µM (inactive).

Q: What about the GI50 [45] of the same molecule?
A: Its GI50 is 0.652 µM (active).

Q: And the GI50 [46]?
A: The GI50 was 0.726 µM (active).

Q: What about the GI50 [47] of the same molecule?
A: The GI50 was 1.91 µM (inactive).

Q: What about the GI50 [48] of the same molecule?
A: The GI50 was 0.498 µM (active).

Q: What about the GI50 [49] of the same molecule?
A: Its GI50 is 0.891 µM (active).

Q: And the GI50 [50]?
A: Its GI50 is 2.61 µM (inactive).

Q: What about the GI50 [51] of the same molecule?
A: Its GI50 is 2.9 µM (inactive).

Q: What about the GI50 [52] of the same molecule?
A: The GI50 was 2.23 µM (inactive).

Q: And the GI50 [53]?
A: Its GI50 is 3.33 µM (inactive).

Q: And the GI50 [54]?
A: Its GI50 is 1.61 µM (inactive).

Q: And the GI50 [55]?
A: Its GI50 is 0.804 µM (active).

Q: What about the GI50 [56] of the same molecule?
A: Its GI50 is 8.13 µM (inactive).

Q: And the GI50 [57]?
A: Its GI50 is 1.27 µM (inactive).

Q: And the GI50 [58]?
A: Its GI50 is > 41.4 µM (inactive).
